pIC50: −log10 of the molar value.
How the values were obtained:
[1] = tested on: insect GABAa receptors; parameters: method as in Hainzl et al. [1996]; conditions: ref Hainzl et al. [1996]; cited from earlier work
[2] = tested on: SH-SY5Ycells; parameters: method as in Ruangjaroon et al. [2017]; conditions: incompletely differentiated cells; ref Ruangjaroon et al. [2017]; cited from earlier work
[3] = tested on: differentiating NT2 cells; assay: Resazurin reduction viability assay in the neuronal differentiation assay; assay type: cell-based, human; conditions: differentiation assay, 5 days exposure; read-out: IC50 general cytotoxicity (resazurin), unspec. EP
Procedure: (§1) As established in our previous study (Stern et al. [2014]), cells were seeded into 96-well plates (Corning Costar, Kaiserslautern, Germany) at 80,000 cells per well and incubated in DMEM/F12 with 10 µM retinoic acid (RA) for 4 days (one media change). Cells were incubated for further 5 days (one media change) in media containing 10 µM RA and up to seven concentrations of a test compound. On day 9 (5-day exposition), cell viability was measured using a resazurin reduction assay (Trinova Biochem, Giessen, Germany). Subsequently, cells were fixed for 15 min in PFA and immunolabeled for ß-tubulin type III as above (Fig. 1a). For control purposes, photographs were taken at × 20 magnification as above. Neuronal differentiation was determined by measuring red fluorescence (excitation 568 nm, emission 603 nm) in a multiwell-plate reader (Infinite 200, TECAN, Germany). As a confirmation of the viability data, cell number was also quantified by measuring DAPI fluorescence (excitation 350 nm, emission 488 nm).

[4] = as above; assay type: cell-based, human; conditions: human
Procedure: as §1

[5] = in vitro; conditions: human
Procedure: Dispersed cells were seeded into two identical poly-D-lysine (10 µg/ml) coated 96-well plates (Corning Costar, Kaiserslautern, Germany) at a density of 10,000 cells per well. Cultures were exposed to up to seven different concentrations of a test compound in DMEM/F12 (six technical replicates per concentration) for 24 h. One plate was immediately fixed in 4% paraformaldehyde in PBS (PFA) for 15 min. After 24 h, while a resazurin reduction assay (2 h) was performed on the other plate. […] Fixed cells were washed in PBS containing 0.1% Triton X100 (PBS-T) and immunolabeled for ß-tubulin type III (monoclonal anti ßtubIII, 1:20,000) using a red fluorescent secondary antibody (goat anti mouse-alexaFluor568, Invitrogen, Germany, 1:250) and DAPI (0.1 µg/ml) as nuclear counterstain. Cells were examined on a Zeiss Axiovert 200 inverted microscope equipped with a CoolSnap camera (Photometrics, Tucson, AZ, USA) and MetaMorph software (Molecular Devices, Sunnyvale, CA, USA), or a Zeiss Axiocam50 mono and Zeiss ZENlite 2.6 blue edition software. Two photographs/well at × 20 magnification were taken. Lengths of all neurites in the field of view were measured in ImageJ (http://imagej.nih.gov/ij) using the ‚segmented line ‘ tool (Fig. 1c) and divided by the number of ß-tubulin III-positive cells.

[6] = tested on: NT2 precursor cells; assay: cells; assay type: cell-based, human
Procedure: (§2) As established before (Stern et al. [2014]), NT2 precursor cells were seeded in 96-mm bacteriological grade Petri dishes (Greiner, Hamburg, Germany) at a density of 4 × 10^6–5 × 10^6 cells per dish. Within 24 h, cells formed free-floating spherical aggregates of 300–800 µm diameter. On the first day, 10 ml of culture medium was added to each Petri dish. On the next days, medium with 10 μM retinoic acid (RA) was added and changed every 2–3 days by transferring the cell suspension to centrifuge tubes and centrifuge at 200 × g for 7 min. After 9 days in culture, aggregates were gently resuspended using a Pasteur pipette, and seeded at 60,000 cells per well into black 96-well plates with flat transparent bottom (Nunc). Plates were lined with poly-D-lysine and laminin (10 µg/ml each), equipped with silicone stoppers from the Oris Cell Migration Assay (AMS Biotechnology, Abingdon, UK). Cells were allowed to adhere overnight. On the next day, stoppers were pulled leaving a monolayer of cells with a circular hole of 2-mm diameter. […] After one wash in PBS, cells were fixed for 15 min in PFA, washed twice in PBS-T and stained with DAPI (0.5 µg/ml) for 5 min, followed by two washes in PBS. A black 96-hole plastic mask leaving a central circular area of 2-mm diameter for each well was clipped to the bottom of the plate. This allows viewing only those cells that had migrated into the free areas left by the silicone stoppers during seeding (Fig. 1b). Migration was quantified by taking two photographs of each well and measuring the distance of the migration front from the black margin of the mask in using ImageJ. Occasional asymmetries caused by slight inaccuracies of silicone stopper placement were compensated by averaging measurements in four quadrants per well. […] Average null-migration values were subtracted from migrated distance before evaluation.

[7] = tested on: N2a neuroblastoma cells; parameters: method as in Sidiropoulou et al. ([2011]); conditions: ref Sidiropoulou et al. ([2011]); cited from earlier work
[8] = tested on: zebrafish embryo; conditions: cited from earlier work
[9] = Resazurin reduction viability assay in the cell migration assay; assay type: cell-based; conditions: human; migration assay, 44 h exposure; > = highest tested concentration; read-out: IC50 general cytotoxicity (resazurin), unspec. EP
Procedure: as §2

[10] = tested on: NT2 neurons; assay: cells; assay type: cell-based, human; conditions: Homo sapiens; 24 h exposure; total neurite length/neuron; normalized to solvent control; read-out: IC50 neurite outgrowth (spec. EP)
Description: Two photographs/well at × 20 magnification were taken.

[11] = tested on: differentiating NT2 cells; assay: cells; assay type: cell-based, human
Procedure: as §1

[12] = yes = at least one concentration of rescuing compound with specific endpoint significantly less affected

## N#Cc1nn(-c2c(Cl)cc(C(F)(F)F)cc2Cl)c(N)c1[S+]([O-])C(F)(F)F (centres unmarked) [Fipronil, 5-Amino-1-[2,6-dichloro-4-(trifluoromethyl)phenyl]-4-(trifluoromethylsulfinyl)pyrazole-3-carbonitrile]
[1]
  Higher affinity to insect GABAa receptors than to vertebrate GABA receptors: more than 100 fold
[2]
  Concentration reducing process outgrowth of vimentin-positive protrusions, but not viability: 25 µM
[3]
  pIC50: 4.63
[4]; 15.6 µM fipronil, read-out: General viability (% of control)
  viability: > 90%
[4]; differentiation assay, 5 days exposure, read-out: IC50 general cytotoxicity (resazurin), unspec. EP
  pIC50: 4.63
[5]
  pIC50: < 4.20
[6]; 44 h exposure
  Concentrations with significant differences between viability and migration: ≥ 15.63 µM
[6]; Homo sapiens, 44 h exposure, read-out: IC50 migration (spec. EP)
  pIC50: 4.60
[6]; [12]
  Rescue by NAC, migration: yes
[7]
  Concentration reducing outgrowth of axon-like processes: 1 µM
[8]; via reduction of gene expression for neuron/glia differentiation, ref Park et al. [2020]
  Concentration inhibiting zebrafish neurogenesis: ~ 33 µM
[8]; zebrafish embryo, ref Stehr et al. [2006]
  Concentration disturbing development of motor circuits: 0.7 µM
[9]
  pIC50: < 4.20
[10]
  pIC50: < 4.20
[11]; Homo sapiens, NT2, 120 h, 5 days exposure, read-out: IC50 neuronal differentiation (ß-tub III, spec. EP)
  pIC50: 4.83
[11]; Homo sapiens, NT2, 15.6 µM fipronil, read-out: ß-tubulin III-immunofluorescence (% of control)
  activity at 15.6 µM: < 50%
[11]; [12]
  Rescue by NAC, neuronal differentiation: yes
